{
  "source": "the NIST ThermoML archive (doi:10.1016/j.jct.2016.11.003)",
  "key": {"[1]": {"conditions": "298 K; 101 kPa; Crystal; X-ray diffraction"}, "[2]": {"experiment": "xn = mol fraction of the nth substance listed", "conditions": "298 K, Crystal, X-ray diffraction"}, "[3]": {"experiment": "excess molar enthalpy (molar enthalpy of mixing); xn = mol fraction of the nth substance listed", "conditions": "298 K, 100 kPa, Crystal, Calvet calorimetry"}},
  "note": "Numbers after ± are expanded uncertainties.",
  "data": [
    {"smiles": "O=P([O-])([O-])[O-].[Eu+3]", "note": "[europium phosphate]", "values": [
      {"measurement": "mass density", "setting": "[1]", "value": "5810 ± 40", "unit": "kg/m3"}
    ]},
    {"smiles": "O=P([O-])([O-])[O-].[Eu+3]", "note": "[europium phosphate] + O=P([O-])([O-])[O-].[La+3]", "values": [
      {"measurement": "mass density", "setting": "[2]; 101 kPa, x1 = 0.11", "value": "5130 ± 30", "unit": "kg/m3"},
      {"measurement": "mass density", "setting": "[2]; 101 kPa, x1 = 0.23", "value": "5210 ± 30", "unit": "kg/m3"},
      {"measurement": "mass density", "setting": "[2]; 101 kPa, x1 = 0.4", "value": "5340 ± 30", "unit": "kg/m3"},
      {"measurement": "mass density", "setting": "[2]; 101 kPa, x1 = 0.58", "value": "5470 ± 30", "unit": "kg/m3"},
      {"measurement": "mass density", "setting": "[2]; 101 kPa, x1 = 0.71", "value": "5570 ± 30", "unit": "kg/m3"},
      {"measurement": "mass density", "setting": "[2]; 101 kPa, x1 = 0.82", "value": "5660 ± 30", "unit": "kg/m3"},
      {"measurement": "mass density", "setting": "[2]; 101 kPa, x1 = 0.91", "value": "5730 ± 30", "unit": "kg/m3"},
      {"measurement": "mass density", "setting": "[2]; 101 kPa, x1 = 1", "value": "5810 ± 40", "unit": "kg/m3"},
      {"measurement": "excess molar enthalpy", "setting": "[3]; x1 = 0.1", "value": "1.89 ± 1.8", "unit": "kJ/mol"},
      {"measurement": "excess molar enthalpy", "setting": "[3]; x1 = 0.11", "value": "0.98 ± 1.6", "unit": "kJ/mol"},
      {"measurement": "excess molar enthalpy", "setting": "[3]; x1 = 0.34", "value": "0.54 ± 1.3", "unit": "kJ/mol"},
      {"measurement": "excess molar enthalpy", "setting": "[3]; x1 = 0.58", "value": "0.85 ± 1.4", "unit": "kJ/mol"},
      {"measurement": "excess molar enthalpy", "setting": "[3]; x1 = 0.71", "value": "0.2 ± 1.1", "unit": "kJ/mol"}
    ]},
    {"smiles": "O=P([O-])([O-])[O-].[Gd+3]", "note": "[gadolinium orthophosphate]", "values": [
      {"measurement": "mass density", "setting": "[1]", "value": "5980 ± 40", "unit": "kg/m3"}
    ]},
    {"smiles": "O=P([O-])([O-])[O-].[Gd+3]", "note": "[gadolinium orthophosphate] + O=P([O-])([O-])[O-].[La+3]", "values": [
      {"measurement": "mass density", "setting": "[2]; 100 kPa, x1 = 0.11", "value": "5160 ± 30", "unit": "kg/m3"},
      {"measurement": "mass density", "setting": "[2]; 100 kPa, x1 = 0.24", "value": "5260 ± 30", "unit": "kg/m3"},
      {"measurement": "mass density", "setting": "[2]; 100 kPa, x1 = 0.34", "value": "5340 ± 30", "unit": "kg/m3"},
      {"measurement": "mass density", "setting": "[2]; 100 kPa, x1 = 0.44", "value": "5440 ± 40", "unit": "kg/m3"},
      {"measurement": "mass density", "setting": "[2]; 100 kPa, x1 = 0.55", "value": "5540 ± 30", "unit": "kg/m3"},
      {"measurement": "mass density", "setting": "[2]; 100 kPa, x1 = 0.64", "value": "5630 ± 30", "unit": "kg/m3"},
      {"measurement": "mass density", "setting": "[2]; 100 kPa, x1 = 0.76", "value": "5740 ± 40", "unit": "kg/m3"},
      {"measurement": "mass density", "setting": "[2]; 100 kPa, x1 = 0.84", "value": "5820 ± 40", "unit": "kg/m3"},
      {"measurement": "mass density", "setting": "[2]; 100 kPa, x1 = 0.92", "value": "5900 ± 40", "unit": "kg/m3"},
      {"measurement": "mass density", "setting": "[2]; 100 kPa, x1 = 1", "value": "5980 ± 40", "unit": "kg/m3"},
      {"measurement": "excess molar enthalpy", "setting": "[3]; x1 = 0.24", "value": "1.15 ± 1.2", "unit": "kJ/mol"},
      {"measurement": "excess molar enthalpy", "setting": "[3]; x1 = 0.44", "value": "3.25 ± 1.2", "unit": "kJ/mol"},
      {"measurement": "excess molar enthalpy", "setting": "[3]; x1 = 0.55", "value": "2.95 ± 1.3", "unit": "kJ/mol"},
      {"measurement": "excess molar enthalpy", "setting": "[3]; x1 = 0.76", "value": "2.18 ± 1", "unit": "kJ/mol"}
    ]},
    {"smiles": "O=P([O-])([O-])[O-].[La+3]", "note": "[lanthanum orthophosphate]", "values": [
      {"measurement": "mass density", "setting": "[1]", "value": "5060 ± 30", "unit": "kg/m3"}
    ]},
    {"smiles": "O=P([O-])([O-])[O-].[La+3]", "note": "[lanthanum orthophosphate] + O=P([O-])([O-])[O-].[Eu+3]", "values": [
      {"measurement": "mass density", "setting": "[2]; 101 kPa, x2 = 0", "value": "5060 ± 30", "unit": "kg/m3"}
    ]},
    {"smiles": "O=P([O-])([O-])[O-].[La+3]", "note": "[lanthanum orthophosphate] + O=P([O-])([O-])[O-].[Gd+3]", "values": [
      {"measurement": "mass density", "setting": "[2]; 100 kPa, x2 = 0", "value": "5060 ± 30", "unit": "kg/m3"}
    ]}
  ]
}
